# From ChEMBL document CHEMBL3044772, “QSAR modeling of some substituted benzimidazole as Angotensin II AT1 receptor antagonist” (Med Chem Res, 2010)
# Target: T1, Type-1 angiotensin II receptor (Bos taurus, UniProt P25104)
# T1 sequence (P25104 whole entry): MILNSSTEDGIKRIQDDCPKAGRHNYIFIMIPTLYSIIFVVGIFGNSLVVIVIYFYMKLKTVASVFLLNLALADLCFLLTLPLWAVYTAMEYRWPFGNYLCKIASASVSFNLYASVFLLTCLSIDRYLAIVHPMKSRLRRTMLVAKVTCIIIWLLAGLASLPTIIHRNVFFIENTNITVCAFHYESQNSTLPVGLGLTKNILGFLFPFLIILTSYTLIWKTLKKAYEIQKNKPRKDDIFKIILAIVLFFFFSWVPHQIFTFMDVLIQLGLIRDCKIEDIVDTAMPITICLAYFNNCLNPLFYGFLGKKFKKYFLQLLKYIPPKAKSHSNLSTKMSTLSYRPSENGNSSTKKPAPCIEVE
# Test: Displacement of [125I]angiotensin 2 from type-1 angiotensin 2 receptor in Bos taurus (bovine) adrenal cortical membrane
# Conditions: read-out: IC50
row,IC50 [nM],SMILES
1,910,CCCCc1nc2ccc(C)c(C(=O)OCC)c2n1Cc1ccc(-c2ccccc2-c2nnn[nH]2)cc1
2,600,CCCCc1nc2cccc(COC)c2n1Cc1ccc(-c2ccccc2-c2nn[nH]n2)cc1
3,2400,CCCCc1nc2cccc(CN(C)C)c2n1Cc1ccc(-c2ccccc2-c2nn[nH]n2)cc1
4,340,CCCCc1nc2ccc(C)c(C(=O)O)c2n1Cc1ccc(-c2ccccc2-c2nn[nH]n2)cc1
5,320,CCCCc1nc2cccc(C(=O)OC)c2n1Cc1ccc(-c2ccccc2-c2nn[nH]n2)cc1
6,740,CCCCc1nc2cc(C(=O)OC)ccc2n1Cc1ccc(-c2ccccc2-c2nn[nH]n2)cc1
7,1100,CCCCc1nc2ccc(OC)cc2n1Cc1ccc(-c2ccccc2-c2nn[nH]n2)cc1
8,1500,CCCCc1nc2cc(Cl)ccc2n1Cc1ccc(-c2ccccc2-c2nn[nH]n2)cc1
9,2600,CCCCc1nc2cccc(CC(=O)O)c2n1Cc1ccc(-c2ccccc2-c2nn[nH]n2)cc1
10,250,CCCCc1nc2cccc(CC(=O)OCC)c2n1Cc1ccc(-c2ccccc2-c2nn[nH]n2)cc1
11,440,CCCCc1nc2cc(Cl)cc(C(=O)OC)c2n1Cc1ccc(-c2ccccc2-c2nn[nH]n2)cc1
12,1400,CCCCc1nc2cccc(C(=O)OCC)c2n1Cc1ccc(-c2ccccc2-c2nn[nH]n2)cc1
13,660,CCCCc1nc2cccc(C(=O)O)c2n1Cc1ccc(-c2ccccc2C(=O)O)cc1
14,3100,CCCCc1nc2ccc(Cl)cc2n1Cc1ccc(-c2ccccc2-c2nn[nH]n2)cc1
15,1200,CCCCOC(=O)c1cccc2nc(CCCC)n(Cc3ccc(-c4ccccc4-c4nn[nH]n4)cc3)c12
16,330,CCCCc1nc2cccc(C)c2n1Cc1ccc(-c2ccccc2-c2nn[nH]n2)cc1
17,5500,CCCCc1nc2cc(C(=O)O)ccc2n1Cc1ccc(-c2ccccc2-c2nn[nH]n2)cc1
18,540,CCCCc1nc2cccc(C(=O)NC(C)C)c2n1Cc1ccc(-c2ccccc2-c2nn[nH]n2)cc1
19,910,CCCCc1nc2cc(OC)ccc2n1Cc1ccc(-c2ccccc2-c2nn[nH]n2)cc1
20,1100,CCCCc1nc2cccc(O)c2n1Cc1ccc(-c2ccccc2-c2nn[nH]n2)cc1
21,440,CCCCc1nc2ccc(C(=O)OC)cc2n1Cc1ccc(-c2ccccc2-c2nn[nH]n2)cc1
22,2800,CCCCc1nc2cccc(OC)c2n1Cc1ccc(-c2ccccc2-c2nn[nH]n2)cc1
23,7200,CCCCc1nc2c(C(=O)OC)cccc2n1Cc1ccc(-c2ccccc2-c2nn[nH]n2)cc1
24,3400,CCCCc1nc2cccc(C(=O)O)c2n1Cc1ccc(-c2ccccc2-c2nnnn2C)cc1
25,450,CCCCc1nc2cccc(CO)c2n1Cc1ccc(-c2ccccc2-c2nn[nH]n2)cc1
26,9000,CCCCc1nc2ccc(C(=O)O)cc2n1Cc1ccc(-c2ccccc2-c2nn[nH]n2)cc1
27,1300,CCCCc1nc2cc(C)cc(C(=O)O)c2n1Cc1ccc(-c2ccccc2-c2nn[nH]n2)cc1
28,870,CCCCc1nc2cc(C)cc(C(=O)OC)c2n1Cc1ccc(-c2ccccc2-c2nn[nH]n2)cc1
29,1100,CCCCc1nc2ccccc2n1Cc1ccc(-c2ccccc2C(=O)O)cc1
30,900,CCCCc1nc2ccccc2n1Cc1ccc(-c2ccccc2-c2nn[nH]n2)cc1

# Same assay, conditions: read-out: pIC50 (converted)
row,IC50 [nM],SMILES
1,328,CCCCc1nc2ccc(C)c(C(=O)O)c2n1Cc1ccc(-c2ccccc2-c2nn[nH]n2)cc1
2,2820,CCCCc1nc2cccc(CC(=O)O)c2n1Cc1ccc(-c2ccccc2-c2nn[nH]n2)cc1
3,1300,CCCCOC(=O)c1cccc2nc(CCCC)n(Cc3ccc(-c4ccccc4-c4nn[nH]n4)cc3)c12
4,5620,CCCCc1nc2cc(C(=O)O)ccc2n1Cc1ccc(-c2ccccc2-c2nn[nH]n2)cc1
5,110,CCCCc1nc2ccccc2n1Cc1ccc(-c2ccccc2C(=O)O)cc1
